SMILES strings stand for the structures.

Chain of GCN2 (Q9P2K8 whole entry): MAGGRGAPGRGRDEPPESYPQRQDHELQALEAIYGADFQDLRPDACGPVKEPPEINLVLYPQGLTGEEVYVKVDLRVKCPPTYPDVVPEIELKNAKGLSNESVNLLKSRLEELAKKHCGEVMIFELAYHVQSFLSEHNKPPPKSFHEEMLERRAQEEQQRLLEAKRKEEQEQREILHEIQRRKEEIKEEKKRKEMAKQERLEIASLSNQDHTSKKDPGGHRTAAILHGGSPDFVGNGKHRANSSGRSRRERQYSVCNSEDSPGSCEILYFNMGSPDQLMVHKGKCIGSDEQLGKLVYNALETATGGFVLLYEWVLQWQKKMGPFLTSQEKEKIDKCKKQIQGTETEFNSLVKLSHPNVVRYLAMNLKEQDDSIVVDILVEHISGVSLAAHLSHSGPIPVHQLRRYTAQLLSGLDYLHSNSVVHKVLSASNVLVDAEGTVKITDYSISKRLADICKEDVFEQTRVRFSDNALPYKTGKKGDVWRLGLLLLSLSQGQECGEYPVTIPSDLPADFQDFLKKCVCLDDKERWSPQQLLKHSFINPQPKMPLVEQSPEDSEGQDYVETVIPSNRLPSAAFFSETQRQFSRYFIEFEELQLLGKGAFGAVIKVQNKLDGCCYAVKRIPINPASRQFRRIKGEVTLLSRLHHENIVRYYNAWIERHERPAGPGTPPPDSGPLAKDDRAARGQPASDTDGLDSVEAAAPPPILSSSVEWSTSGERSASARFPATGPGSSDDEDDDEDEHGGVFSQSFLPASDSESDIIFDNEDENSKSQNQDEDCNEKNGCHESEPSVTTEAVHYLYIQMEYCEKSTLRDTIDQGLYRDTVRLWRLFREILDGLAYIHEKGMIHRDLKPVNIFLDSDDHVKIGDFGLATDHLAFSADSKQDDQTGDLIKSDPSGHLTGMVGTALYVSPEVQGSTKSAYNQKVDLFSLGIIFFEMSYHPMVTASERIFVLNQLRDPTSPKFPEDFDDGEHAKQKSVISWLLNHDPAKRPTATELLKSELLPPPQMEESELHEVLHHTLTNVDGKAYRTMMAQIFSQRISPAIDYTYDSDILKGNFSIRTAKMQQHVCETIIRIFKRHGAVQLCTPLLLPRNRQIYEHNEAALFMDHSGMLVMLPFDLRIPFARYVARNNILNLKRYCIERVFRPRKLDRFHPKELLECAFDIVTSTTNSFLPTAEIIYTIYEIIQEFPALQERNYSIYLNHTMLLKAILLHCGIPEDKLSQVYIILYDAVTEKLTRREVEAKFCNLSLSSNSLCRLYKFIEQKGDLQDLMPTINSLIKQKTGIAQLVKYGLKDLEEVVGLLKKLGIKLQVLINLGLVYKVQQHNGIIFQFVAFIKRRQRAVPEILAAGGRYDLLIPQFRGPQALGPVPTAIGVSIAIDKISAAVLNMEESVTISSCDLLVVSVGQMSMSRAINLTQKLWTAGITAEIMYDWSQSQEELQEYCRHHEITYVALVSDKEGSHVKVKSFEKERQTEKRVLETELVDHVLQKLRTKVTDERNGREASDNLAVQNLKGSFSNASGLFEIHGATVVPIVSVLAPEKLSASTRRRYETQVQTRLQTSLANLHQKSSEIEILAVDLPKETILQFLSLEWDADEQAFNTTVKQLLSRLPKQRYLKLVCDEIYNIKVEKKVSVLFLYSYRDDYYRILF

One assay deals with GCN2 (Homo sapiens, UniProt Q9P2K8). In words: GCN2 enzymatic endpoint assay: phosphorylation of GFP-eIF2α measured by TR-FRET (Lanthascreen). The format is biochemical. Particulars: GCN2 biochemical IC50; 4 nM GCN2, 2 μM ATP, 80 nM GFP-eIF2α, 90 min RT; read-out: GCN2 activity. The procedure:
The Enzymatic assay was run as an endpoint assay to quantify the activity of the serine/threonine GCN2 kinase by way of measuring phosphorylation of its natural substrate, eiF2α.
The enzymatic reaction was initiated by incubating with 2 μM ATP and 80 nM of GFP labeled eiF2a substrate at room temperature and then stopped after 90 minutes with EDTA. The amount of phosphorylated eIF2α is determined by TR-FRET (Lanthascreen). A terbium labeled antibody associates with the phosphorylated substrate resulting in an increased TR-FRET value. Activity was calculated as the ratio of the acceptor (fluorescein) signal at 520 nm wavelength to the donor (terbium) signal 495 nm. The amount of antibody that is bound to the tracer is directly proportional to the amount of phosphorylated substrate present, and in this manner, kinase activity can be detected and measured by an increase in the TR-FRET value.
Compound addition by D300
5 μL enzyme solution in assay buffer
5 μL substrate/ATP mixture in assay buffer
5 μL stop/detection mix in antibody dilution buffer
With `Cc1nnc(-c2ccc(-n3nc(Br)c4cnc(N[C@@H]5CC[C@@](C)(C(N)=O)C5)nc43)cc2)s1` [Example 60, (1R,3R)-3-((3-bromo-1-(4-(5-methyl-1,3,4-thiadiazol-2-yl)phenyl)-1H-pyrazolo[3,4-d]pyrimidin-6-yl)amino)-1-methylcyclopentane-1-carboxamide], the IC50 lay in the range of 25 to 200 nM.
Regarding `CNC(=O)[C@]1(C)CC[C@@H](Nc2ncc3c(Br)nn(-c4ccc(-c5ncco5)c(CC#N)c4)c3n2)C1` [Example 45, (1R,3R)-3-((3-bromo-1-(3-(cyanomethyl)-4-(oxazol-2-yl)phenyl)-1H-pyrazolo[3,4-d]pyrimidin-6-yl)amino)-N,1-dimethylcyclopentane-1-carboxamide; 2,2,2-trifluoroacetic acid], the IC50 was in the range of 25 to 200 nM.
On the same count and under the same terms, the figure for `COCCNC(=O)[C@@H]1CCC[C@@H](Nc2ncc3c(Br)nn(-c4ccc5ncccc5c4)c3n2)C1` [Example 20, (1R,3R)-3-((3-bromo-1-(quinolin-6-yl)-1H-pyrazolo[3,4-d]pyrimidin-6-yl)amino)-N-(2-methoxyethyl)cyclohexane-1-carboxamide] is 500 to 1000 nM; for `COCCNC(=O)[C@@H]1CC[C@@H](Nc2ncc3c(Br)nn(-c4ccc(-c5ncco5)cc4)c3n2)C1` [Example 26, (1R,3R)-3-((3-bromo-1-(4-(oxazol-2-yl)phenyl)-1H-pyrazolo[3,4-d]pyrimidin-6-yl)amino)-N-(2-methoxyethyl)cyclopentane-1-carboxamide] it is 25 to 200 nM.

The same assay, now with this note: tested as described in Example 77; compound and/or hydrochloride, dihydrochloride or trifluoroacetic acid salt; read-out: IC 50 Activity.
For the compound `CNC(=O)[C@]1(C)CC[C@@H](Nc2ncc3c(Br)nn(-c4cc(Cl)cc(CCS(C)(=O)=O)c4)c3n2)C1`, the IC50 was in the range of 25 to 200 nM.
On the same count and under the same terms, in the case of `COCCN(C)C(=O)[C@]1(C)CC[C@@H](Nc2ncc3c(Br)nn(-c4cc(F)c5ncccc5c4)c3n2)C1` [(1R,3R)-3-[[3-bromo-1-(8-fluoro-6-quinolyl)pyrazolo[3,4-d]pyrimidin-6-yl]amino]-N-(2-methoxyethyl)-N,1-dimethyl-cyclopentane-carboxamide] it was under 25 nM.
Take `C[C@H]1CN(C(=O)[C@@H]2CC[C@@H](Nc3ncc4c(Br)nn(-c5ccc6ncccc6c5)c4n3)C2)C[C@H](C)N1` [((1R,3R)-3-((3-bromo-1-(quinolin-6-yl)-1H-pyrazolo[3,4-d]pyrimidin-6-yl)amino)cyclo-pentyl)((3S,5S)-3,5-dimethylpiperazin-1-yl)methanone]: the IC50 lay within 25 to 200 nM.
On the same count and under the same terms, the figure for `C[C@@H]1C(=O)N(C)CCN1C(=O)[C@@H]1CC[C@@H](Nc2ncc3c(Br)nn(-c4cc(C#N)c5ncccc5c4)c3n2)C1` [6-[3-bromo-6-[[(1R,3R)-3-[(2R)-2,4-dimethyl-3-oxo-piperazine-1-carbonyl]cyclopentyl]amino]pyrazolo[3,4-d]pyrimidin-1-yl] quinoline-8-carbonitrile] is under 25 nM; for `Cc1nnc(-c2ccc(-n3nc(Br)c4cnc(NC5CCC(CN(C)C)(C(=O)O)C5)nc43)cc2)s1` (stereo not shown) it is 25 to 200 nM.
Same read-out and setting: in the case of `CNC(=O)[C@]1(C)CCC(Nc2ncc3c(Br)nn(-c4ccc5c(=O)[nH]ccc5c4)c3n2)C1` (stereo partly drawn) [(1R)-3-[[3-bromo-1-(1-oxo-2H-isoquinolin-6-yl)pyrazolo[3,4-d]pyrimidin-6-yl]amino]-N,1-dimethyl-cyclopentanecarboxamide] it was 25 to 200 nM.
Still for that read-out and setting: in the case of `CNC(=O)[C@]1(C)CC[C@@H](Nc2ncc3c(Br)nn(-c4ccc5nc(N6CCN(C(C)=O)CC6)ncc5c4)c3n2)C1` it was 25 to 200 nM; in that of `Cc1nnc(-c2ccc(-n3nc(Br)c4cnc(N[C@@H]5CC[C@@](C)(N(C)C)C5)nc43)cc2CCC#N)s1` [3-[5-[3-bromo-6-[[(1R,3R)-3-(dimethylamino)-3-methyl-cyclopentyl]amino]pyrazolo[3,4-d]pyrimidin-1-yl]-2-(5-methyl-1,3,4-thiadiazol-2-yl)phenyl]propanenitrile], 25 to 200 nM.
For `Cc1nnc(-c2ccc(-n3nc(Br)c4cnc(N[C@@H]5CC[C@H](P(C)(C)=O)C5)nc43)cc2)s1` [3-bromo-N-[(1R,3S)-3-dimethylphosphoryl-cyclopentyl]-1-[4-(5-methyl-1,3,4-thiadiazol-2-yl)phenyl]pyrazolo[3,4-d]pyrimidin-6-amine], the IC50 lay within 25 to 200 nM.
For the compound `CNC(=O)[C@]1(C)CC[C@@H](Nc2ncc3c(Br)nn(-c4cc(CO)cc([N+](=O)[O-])c4)c3n2)C1` [(1R,3R)-3-[[3-bromo-1-[3-(hydroxy-methyl)-5-nitro-phenyl]pyrazolo [3,4-d]pyrimidin-6-yl]amino]-N,1-dimethyl-cyclopentanecarboxamide], the IC50 lay within 25 to 200 nM.
The same measure, in the same setting: in the case of `CNCc1cc(OC(F)(F)F)cc(-n2nc(Br)c3cnc(N[C@@H]4CCC(C)(C(=O)NC)C4)nc32)c1` (stereo partly drawn) [(3R)-3-[[3-bromo-1-[3-(methylaminomethyl)-5-(trifluoromethoxy)phenyl]pyrazolo[3,4-d]pyrimidin-6-yl]amino]-N,1-dimethyl-cyclopentanecarboxamide] it was 25 to 200 nM; in that of `O=C([C@@H]1CC[C@@H](Nc2ncc3c(Br)nn(-c4ccc5ncccc5c4)c3n2)C1)N1CC[S+]([O-])CC1` [((1R,3R)-3-((3-bromo-1-(quinolin-6-yl)-1H-pyrazolo[3,4-d]pyrimidin-6-yl)amino)cyclo-pentyl)(1-oxidothiomorpholino)methanone], 25 to 200 nM; in that of `C[C@@]1(C(=O)O)CC[C@@H](Nc2ncc3c(Br)nn(-c4cc(CCN)c5ncccc5c4)c3n2)C1` [(1R,3R)-3-[[1-[8-(2-aminoethyl)-6-quinolyl]-3-bromo-pyrazolo[3,4-d]pyrimidin-6-yl]amino]-1-methyl-cyclopentanecarboxylic acid], under 25 nM.
Consider `CS(=O)(=O)CCNC(=O)[C@@H]1CC[C@@H](Nc2ncc3c(Br)nn(-c4cnn(-c5ccncc5)c4)c3n2)C1` [(1R,3R)-3-((3-bromo-1-(1-(pyridin-4-yl)-1H-pyrazol-4-yl)-1H-pyrazolo[3,4-d]pyrimidin-6-yl)amino)-N-(2-(methylsulfonyl)ethyl)cyclo-pentane-1-carboxamide], for which the IC50 lay within 200 to 500 nM.
Still for that read-out and setting: the figure for `CNC(=O)C1(C)CC[C@@H](Nc2ncc3c(Br)nn(-c4ccc(-c5noc(C)n5)cc4)c3n2)C1` (stereo partly drawn) [(3R)-3-[[3-bromo-1-[4-(5-methyl-1,2,4-oxadiazol-3-yl)phenyl]pyrazolo[3,4-d]pyrimidin-6-yl]amino]-N,1-dimethyl-cyclopentanecarboxamide] is 25 to 200 nM; for `O=C(N[C@@H]1CCOC1)[C@@H]1CC[C@@H](Nc2ncc3c(Br)nn(-c4cc(Cl)c5ncccc5c4)c3n2)C1` [(1R,3R)-3-((3-bromo-1-(8-chloroquinolin-6-yl)-1H-pyrazolo[3,4-d]pyrimidin-6-yl)amino)-N-((R)-tetrahydrofuran-3-yl)cyclopentane-1-carboxamide] it is under 25 nM.
Same read-out and setting: in the case of `O=C(NC1CCS(=O)(=O)CC1)[C@@H]1CC[C@@H](Nc2ncc3c(Br)nn(-c4ccc5ncccc5c4)c3n2)C1` it was 25 to 200 nM.
The same measure, in the same setting: the figure for `CC(C)(NC(=O)[C@@H]1CC[C@@H](Nc2ncc3c(Br)nn(-c4cc(C#N)c5ncccc5c4)c3n2)C1)C(N)=O` is under 25 nM; for `CNC(=O)[C@]1(C)CC[C@@H](Nc2ncc3c(Br)nn(-c4ccc(-c5nnc(C)s5)c(OCS(C)(=O)=O)c4)c3n2)C1` [(1R,3R)-3-[[3-bromo-1-[3-(methylsulfonyl-methoxy)-4-(5-methyl-1,3,4-thiadiazol-2-yl)phenyl]pyrazolo[3,4-d]pyrimidin-6-yl]amino]-N,1-dimethyl-cyclopentane-carboxamide] it is 25 to 200 nM; for `CNC(=O)[C@]1(C)CC[C@@H](Nc2ncc3c(Br)nn(-c4cc(/C=C/S(C)(=O)=O)c5ncccc5c4)c3n2)C1` [(1R,3R)-3-[[3-bromo-1-[8-[(E)-2-methyl-sulfonylvinyl]-6-quinolyl]pyrazolo[3,4-d]pyrimidin-6-yl]amino]-N,1-dimethyl-cyclopentanecarboxamide] it is under 25 nM.
`CNC(=O)[C@]1(C)CC[C@@H](Nc2ncc3c(Br)nn(-c4cc(C5(CN)CC5)c5ncccc5c4)c3n2)C1` [(1R,3R)-3-[[1-[8-[1-(aminomethyl)cyclo-propyl]-6-quinolyl]-3-bromo-pyrazolo [3,4-d]pyrimidin-6-yl]amino]-N,1-dimethyl-cyclopentanecarboxamide]: the IC50 fell in the range of 25 to 200 nM.
The same measure, in the same setting: in the case of `CNC(=O)[C@]1(C)CC[C@@H](Nc2ncc3c(Br)nn(-c4ccc(C(=O)c5ccno5)cc4)c3n2)C1` [(1R,3R)-3-[[3-bromo-1-[4-(isoxazole-5-carbonyl)phenyl]pyrazolo[3,4-d]pyrimidin-6-yl]amino]-N,1-dimethyl-cyclopentanecarboxamide] it was 25 to 200 nM.
The same measure, in the same setting: in the case of `CC1(C(=O)NCC(F)F)CC[C@@H](Nc2ncc3c(Br)nn(-c4cc(F)c5ncccc5c4)c3n2)C1` (stereo partly drawn) [(3R)-3-[[3-bromo-1-(8-fluoro-6-quinolyl)pyrazolo[3,4-d]pyrimidin-6-yl]amino]-N-(2,2-difluoroethyl)-1-methyl-cyclopentane-carboxamide] it was 25 to 200 nM; in that of `CS(=O)(=O)CCNC(=O)[C@@H]1CC[C@@H](Nc2ncc3c(Br)nn(-c4ccc5nccnc5c4)c3n2)C1` [(1R,3R)-3-((3-bromo-1-(quinoxalin-6-yl)-1H-pyrazolo[3,4-d]pyrimidin-6-yl)amino)-N-(2-(methylsulfonyl)ethyl)cyclopentane-1-carboxamide], 200 to 500 nM.

The values are drawn from patent US11046699B2, “Pyrazolo-pyrimidin-amino-cycloalkyl compounds and their therapeutic uses” (RAPT THERAPEUTICS, INC., priority 2018, dated 2021).
